The record followed here is patent US9458101B2 (priority 2009, dated 2016).

Data set [1] deals with A549 (Human lung carcinoma). Put plainly: Cytotoxicity testing (MTS) on A549. Format: cell-based. The protocol:
(§1) Cell lines used were A549 (Human lung carcinoma), HeLa (Human cervical carcinoma), MCF-7 (Human mammary gland adenocarcinoma), CEM (Human T-lymphoblastoid from ALL (Acute lymphoblastic leukemia)), M010B (Human glioma), M006X (Human glioma) and Jurkat (Human T-cell leukemia).
(§2) A series of dilutions were prepared and a wavelength scan of the diluted solution was used to determine the wavelength of maximum absorbance for each compound. Five standardized drug concentrations were scanned at this pre-determined wavelength to obtain an estimate of the compound's extinction coefficient.
(§3) A primary MTS assay was used to test the optimal number of cells for cytotoxicity assays. Cells were trypsinized, counted and introduced into seven lanes of a 96-well plate at different cell numbers (eight replicates per lane). Optimal cell numbers were determined after 72 and 96 hours of growth and were used in subsequent cytotoxicity assays. […] Cell viability was determined using the Cell Titer 96 AQueous One Solution Cell Proliferation Assay (Promega, U.S.A.).
(§4) Fits were performed using a dose-response model ideal for data showing an initial response plateau, a transition region, and a final response plateau.
(§5) [formula] […] Itop is the response obtained at very low/no drug concentration. The data and all parameters were normalized to Itop−Ibot, a measure of the maximum effect of the drug.

Data set [2] has as its system HeLa (Human cervical carcinoma). Put plainly: Cytotoxicity testing (MTS) on HeLa. Format: cell-based. As for the experimental part:
as §1, §2, §3, §4, §5

Data set [3] deals with CEM (Human T-lymphoblastoid from ALL). Put plainly: Cytotoxicity testing (MTS) on CEM. In kind it is cell-based. The protocol:
as §1, §2, §3, §4, §5

Data set [4] deals with A549, HeLa, MCF-7 and CEM cell lines. Put plainly: Cytotoxicity, mean over A549, HeLa, MCF-7 and CEM cell lines. The conditions noted are these: for IC50 [log10 M] (mean logIC50): mean over A549, HeLa, MCF-7 and CEM cell lines; for cytotoxicity compared with colchicine: cytotoxicity assays.
Excerpt: as §1, §3, §5
Cytotoxicity screening was performed on a number of cell lines based on the cancer of origin and differing morphologies.

In data set [5] the test system is M010B (Human glioma). Put plainly: Cytotoxicity testing (MTS) on M010B. In kind it is cell-based. The protocol: as §1, §2, §3, §4, §5
The test system of data set [6] is MCF-7 (Human mammary gland adenocarcinoma). Put plainly: Cytotoxicity testing (MTS) on MCF-7. In kind it is cell-based. As for the experimental part: as §1, §2, §3, §4, §5
Data set [7] concerns M006X (Human glioma). Put plainly: Cytotoxicity testing (MTS) on M006X. In kind it is cell-based. As for the experimental part: as §1, §2, §3, §4, §5

`COc1cc2c(c(OCc3ccccc3)c1OC)-c1ccc(OC)c(=O)cc1[C@@H](NC(C)=O)CC2` [Compound 10, N-[(7S)-2,3,10-trimethoxy-9-oxo-1-((phenyl)methoxy)-5,6,7,9-tetrahydrobenzo [α]heptalen-7-yl]acetamide]: the “Fraction of cells that survive at the highest drug concentrations (Ibot)” value (from here on “Fraction of cells that survive”) in data set [1] turned out to be 0.256 ± 0.032; in data set [2] it was 0.080 ± 0.026; in data set [3], 0.012 ± 0.022; in data set [5], 0.250 ± 0.031; in data set [6], 0.387 ± 0.016; in data set [7], 0.088 ± 0.022. The logIC50 in data set [1] is listed as −5.77 ± 0.10 log10 M; in data set [2], −6.17 ± 0.07 log10 M; in data set [3], −6.45 ± 0.09 log10 M; in data set [5], −5.66 ± 0.10 log10 M; in data set [6], −6.27 ± 0.08 log10 M; in data set [7] it was −6.42 ± 0.09 log10 M. Besides, the “IC50 [log10 M] (mean logIC50)” value in data set [4] is −6.16 ± 0.08 log10 M.
Turning to “N-[(7S)-2,3,10-trimethoxy-9-oxo-1-(((3-methoxy)propan)oxy)(3-methoxy))-5,6,7,9-tetrahydrobenzo[α]heptalen-7-yl]acetamide [Compound 11]”, the logIC50 in data set [1] was −6.47 ± 0.12 log10 M; in data set [2] it was −7.23 ± 0.09 log10 M; in data set [3], −7.45 ± 0.09 log10 M; in data set [5] it was −6.74 ± 0.08 log10 M; in data set [6], −7.05 ± 0.04 log10 M; in data set [7] it was −7.40 ± 0.09 log10 M. Further, the “IC50 [log10 M] (mean logIC50)” value in data set [4] was −7.05 ± 0.09 log10 M.
For `CCOc1cc2c(c(OC)c1OC)-c1ccc(SC)c(=O)cc1[C@@H](NC(C)=O)CC2` [Compound 42, N-[(7S)-3-ethoxy-1,2-dimethoxy-10-methylsulfanyl-9-oxo-5,6,7,9-tetrahydrobenzo[α]heptalen-7-yl]acetamide], the “Fraction of cells that survive” value in data set [1] came to 0.256 ± 0.015; in data set [2], 0.046 ± 0.026; in data set [3], 0.026 ± 0.018; in data set [5], 0.327 ± 0.023; in data set [6] it was 0.538 ± 0.010; in data set [7] it was 0.184 ± 0.021. Also, the logIC50 in data set [1] is reported as −8.37 ± 0.10 log10 M; in data set [2] it was −8.47 ± 0.14 log10 M; in data set [3], −8.64 ± 0.09 log10 M; in data set [5], −8.27 ± 0.12 log10 M; in data set [6], −8.28 ± 0.10 log10 M; in data set [7], −8.83 ± 0.08 log10 M. For the same compound, the “average IC50 values compared with colchicine” value in data set [4] (average values of Table 3) is reported as “stronger than colchicine”. For the same compound, the “cytotoxicity compared with colchicine” value in data set [4] is reported as “consistently the most effective”. Also, the “IC50 [log10 M] (mean logIC50)” value in data set [4] is given as −8.44 ± 0.11 log10 M.
Take `CCCOc1c(OC)c(OC)cc2c1-c1ccc(OC)c(=O)cc1[C@@H](NC(C)=O)CC2` [Compound 8, N-[(7S)-2,3,10-trimethoxy-9-oxo-1-(propanoxy)-5,6,7,9-tetrahydrobenzo[α]heptalen-7-yl]acetamide]: the “Fraction of cells that survive” value turned out to be 0.246 ± 0.013 in data set [1]; 0.044 ± 0.020 in data set [2]; 0.000 ± 0.013 in data set [3]; 0.181 ± 0.020 in data set [5]; 0.433 ± 0.013 in data set [6]; 0.072 ± 0.014 in data set [7]. In addition, the logIC50 in data set [1] is reported as −7.80 ± 0.07 log10 M; in data set [2], −7.68 ± 0.09 log10 M; in data set [3], −8.48 ± 0.10 log10 M; in data set [5] it was −7.49 ± 0.13 log10 M; in data set [6] it was −7.50 ± 0.12 log10 M; in data set [7], −7.98 ± 0.03 log10 M. The “cytotoxicity compared with colchicine” value in data set [4] is listed as “moderately better than colchicine”. Also, the “IC50 [log10 M] (mean logIC50)” value in data set [4] is given as −7.86 ± 0.10 log10 M.
Consider `COc1cc2c(c(OCc3ccc(Cl)cc3)c1OC)-c1ccc(OC)c(=O)cc1[C@@H](NC(C)=O)CC2` [Compound 15], for which the “Fraction of cells that survive” value in data set [1] is given as 0.288 ± 0.020; in data set [2] it was 0.039 ± 0.034; in data set [3] it was −0.016 ± 0.032; in data set [5], 0.382 ± 0.028; in data set [6] it was 0.381 ± 0.024; in data set [7], 0.058 ± 0.030. Further, the logIC50 in data set [1] was −6.23 ± 0.08 log10 M; in data set [2], −6.22 ± 0.09 log10 M; in data set [3] it was −6.57 ± 0.11 log10 M; in data set [5], −6.38 ± 0.14 log10 M; in data set [6] it was −6.35 ± 0.12 log10 M; in data set [7] it was −6.45 ± 0.13 log10 M. In data set [4], the “IC50 [log10 M] (mean logIC50)” value is given as −6.34 ± 0.10 log10 M.
With “N-[(7S)-2,3,10-trimethoxy-1-((methyl)cyclohexane)-9-oxo-5,6,7,9-tetrahydrobenzo[α]heptalen-7-yl]acetamide [Compound 16]”, the logIC50 in data set [1] is recorded as −4.95 ± 0.07 log10 M; in data set [2], −5.33 ± 0.11 log10 M; in data set [3] it was −5.53 ± 0.10 log10 M; in data set [5], −5.20 ± 0.08 log10 M; in data set [6] it was −5.22 ± 0.08 log10 M; in data set [7], −5.44 ± 0.12 log10 M. Also, in data set [4], the “IC50 [log10 M] (mean logIC50)” value was −5.26 ± 0.09 log10 M.
In the case of `COc1cc2c(c(OC(=O)C(C)C)c1OC)-c1ccc(OC)c(=O)cc1[C@@H](NC(C)=O)CC2` [Compound 5, N-[(7S)-1-(((methyl)ethyl)carbonyloxy)-2,3,10-trimethoxy-9-oxo-5,6,7,9-tetrahydrobenzo [α]heptalen-7-yl]acetamide], the “Fraction of cells that survive” value in data set [1] was 0.265 ± 0.043; in data set [2], 0.025 ± 0.044; in data set [3] it was −0.003 ± 0.048; in data set [5] it was 0.258 ± 0.024; in data set [6], 0.451 ± 0.025; in data set [7] it was 0.031 ± 0.018. Further, the logIC50 in data set [1] was −5.09 ± 0.06 log10 M; in data set [2], −5.46 ± 0.13 log10 M; in data set [3], −5.51 ± 0.13 log10 M; in data set [5] it was −5.22 ± 0.06 log10 M; in data set [6], −5.25 ± 0.08 log10 M; in data set [7], −6.12 ± 0.04 log10 M. Besides, in data set [4], the “IC50 [log10 M] (mean logIC50)” value is −5.33 ± 0.10 log10 M.
In the case of `COc1cc2c(c(OCC(C)C)c1OC)-c1ccc(OC)c(=O)cc1[C@@H](NC(C)=O)CC2` [Compound 7a, N-[(7S)-2,3,10-trimethoxy-1-(2-methylpropoxy)-9-oxo-5,6,7,9-tetrahydrobenzo[α]heptalen-7-yl]acetamide], the “Fraction of cells that survive” value in data set [1] turned out to be 0.222 ± 0.026; in data set [2], 0.051 ± 0.032; in data set [3] it was 0.022 ± 0.020; in data set [5], 0.239 ± 0.031; in data set [6], 0.406 ± 0.014; in data set [7], 0.197 ± 0.024. For the same compound, the logIC50 in data set [1] is −6.52 ± 0.13 log10 M; in data set [2] it was −6.66 ± 0.11 log10 M; in data set [3], −6.76 ± 0.08 log10 M; in data set [5], −6.60 ± 0.14 log10 M; in data set [6], −6.17 ± 0.06 log10 M; in data set [7], −7.12 ± 0.06 log10 M. The “cytotoxicity compared with colchicine” value in data set [4] is “moderately better than colchicine”. Moreover, the “IC50 [log10 M] (mean logIC50)” value in data set [4] was −6.53 ± 0.10 log10 M.
